# Patent publication US20100004222A1, “Amide Derivatives as Ion-Channel Ligands and Pharmaceutical Compositions and Methods of Using the Same” (Renovis, Inc., priority 2006, published 2010)
# “Also recorded” adds a separate entry of the source.
# Key:
# [1] = Pharmacokinetic evaluation following intravenous and oral administration in rats; format: in vivo; details: male, Sprague-Dawley, plasma, rat; for bioavailability: AUCinf (PO)/AUCinf (IV), dose normalized, PO 5 mg/kg, read-out: Oral Bioavailability F (%); for clearance: non-compartmental analysis, read-out: In vivo Clearance (converted)
# Method: Male Sprague-Dawley rats are acclimatized for at least 24 hours prior to experiment initiation. During acclimation period, all animals receive food and water ad libitum. However, food but not water is removed from the animal's cages at least 12 hours before initiation of the experiment. During the first 3 hours of experimentation, the animals receive only water ad libitum. At least three animal each are tested for intravenous and oral dosage. For intravenous formulation, compounds were dissolved (0.25 to 1 mg/mL) in a mixture of 3% dimethyl sulfoxide, 40% PEG 400 and the rest percentage of 40% Captisol in water (w/v). For oral formulation, compounds of this invention are dissolved (2 mg/mL) in a mixture of 5% of 10% Tween 80 in water (v/v) and 95% of 0.5% methyl cellulose in water (w/v). The animals are weighed before dosing. The determined body weight is used to calculate the dose volume for each animal.
# Dose volume(mL/kg)=1 mg/kg/formulation concentration(mg/mL)
# In instances where the formulation concentrations were less than 0.5 mg/mL, the dosing volume is about 2 mL/kg. PO rats are typically dosed through oral gavage at 2.5 mL/kg to achieve a dose level of 5 mg/kg. For IV dosing, blood samples are collected (using a pre-heparinized syringe) via the jugular vein catheter at 2, 5, 15, 30, 60, 120, 180, 300, 480, and 1440 minutes post dosing. For PO dosing, blood samples are collected (using a pre-heparinized syringe) via the jugular vein catheter before dosing and at 5, 15, 30, 60, 120, 180, 300, 480, and 1440 minutes post dosing. About 250 uL of blood is obtained at each time point from the animal. Equal volumes of 0.9% normal saline are replaced to prevent dehydration. The whole blood samples are maintained on ice until centrifugation. Blood samples are then centrifuged at 14,000 rpm for 10 minutes at 4° C. and the upper plasma layer transferred into a clean vial and stored at −80° C. The resulting plasma samples are then analyzed by liquid chromatography-tandem mass spectrometry. Following the measurement of plasma samples and dosing solutions, plasma concentration-time curve is plotted. Plasma exposure is calculated as the area under the concentration-time curve extrapolated to time infinite (AUCinf). The AUCinf is averaged and the oral bioavailability (% F) for individual animal is calculated as:
# AUCinf (PO)/AUCinf (IV), normalized to their respective dose levels. The % F is reported as the mean % F of all animals dosed orally with the compound of the invention at the specified level (Table 6).
# In vivo clearance in the rat was calculated by conducting a non-compartmental analysis of the pharmacokinetic profile using WinNonlin software.
# [2] = target: T1, VR1 (Homo sapiens, UniProt Q8NER1); assay: Calcium uptake assay, capsaicin agonist (high throughput calcium imaging); format: cell-based; design: expressed in transfected cells; host or cells: T-REx HEK 293 (Invitrogen), pcDNA5/TO vector; details: 3 nM; FIGS. 2-6
# Target sequence in this assay (Q8NER1 whole entry): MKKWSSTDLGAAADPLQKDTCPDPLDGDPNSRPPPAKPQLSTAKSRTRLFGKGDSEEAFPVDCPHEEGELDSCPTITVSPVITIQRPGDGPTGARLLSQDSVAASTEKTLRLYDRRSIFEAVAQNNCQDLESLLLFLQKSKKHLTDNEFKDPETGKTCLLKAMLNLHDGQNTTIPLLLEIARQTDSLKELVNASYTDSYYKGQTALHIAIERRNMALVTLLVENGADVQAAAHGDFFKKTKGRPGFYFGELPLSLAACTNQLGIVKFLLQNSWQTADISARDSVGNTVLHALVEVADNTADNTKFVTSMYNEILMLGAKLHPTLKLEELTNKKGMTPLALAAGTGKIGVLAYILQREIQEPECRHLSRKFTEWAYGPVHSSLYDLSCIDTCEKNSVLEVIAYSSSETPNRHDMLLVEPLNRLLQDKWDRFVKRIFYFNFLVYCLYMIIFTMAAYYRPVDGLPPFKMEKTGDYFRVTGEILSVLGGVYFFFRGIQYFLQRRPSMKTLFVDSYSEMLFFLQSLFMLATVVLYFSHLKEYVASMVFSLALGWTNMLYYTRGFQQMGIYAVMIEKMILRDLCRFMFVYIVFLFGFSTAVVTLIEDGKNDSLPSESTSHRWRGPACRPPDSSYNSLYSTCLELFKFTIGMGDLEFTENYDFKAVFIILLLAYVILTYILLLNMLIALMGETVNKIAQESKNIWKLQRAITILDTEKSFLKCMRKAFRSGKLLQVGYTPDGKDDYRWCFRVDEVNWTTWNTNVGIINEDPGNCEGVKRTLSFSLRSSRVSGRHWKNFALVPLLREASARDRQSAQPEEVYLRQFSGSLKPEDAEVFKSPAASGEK
# [3] = target: T1, VR1; assay: Acid stimulation assay (FDSS 6000); format: cell-based; details: final assay buffer pH5.8, 15 min pre-incubation
# Method: The Acid-induced changes in the intracellular calcium concentration were monitored using FDSS 6000 (Hamamatsu Photonics, Japan), a fluorometric imaging system. The cell suspension in resting buffer (HBSS supplemented with 10 mM HEPES, pH 7.4) was pre-incubated with varying concentrations of the test compounds or resting buffer (buffer control) for 15 minutes at room temperature under dark conditions. The cells were automatically added the stimulating solution (HBSS supplemented with MES, final assay buffer pH5.8) by the FDSS 6000.
# Target sequence in this assay (Q8NER1 whole entry, species assumed): as the sequence (Q8NER1 whole entry) above
# [4] = Half-life in human liver microsomes (HLM); format: in vitro ADME; details: pH 7.4, 1 μM compound, 0.78 mg/mL HLM, 37° C.
# Method: Test compounds (1 μM) are incubated with 3.3 mM MgCl2 and 0.78 mg/mL HLM (HL101) in 100 mM potassium phosphate buffer (pH 7.4) at 37° C. on the 96-deep well plate. The reaction mixture is split into two groups, a non-P450 and a P450 group. NADPH is only added to the reaction mixture of the P450 group. An aliquot of samples of P450 group is collected at 0, 10, 30, and 60 min time point, where 0 min time point indicated the time when NADPH is added into the reaction mixture of P450 group. An aliquot of samples of non-P450 group is collected at −10 and 65 min time point. Collected aliquots are extracted with acetonitrile solution containing an internal standard. The precipitated protein is spun down in centrifuge (2000 rpm, 15 min). The compound concentration in supernatant is measured by LC/MS/MS system.
# The half-life value is obtained by plotting the natural logarithm of the peak area ratio of compounds/internal standard versus time. The slope of the line of best fit through the points yields the rate of metabolism (k). This is converted to a half-life value using following equations: […]
# [5] = target: T1, VR1; assay: Calcium uptake assay, low pH (proton) agonist; format: cell-based; design: expressed in transfected cells; host or cells: T-REx HEK 293 (Invitrogen), pcDNA5/TO vector; details: HEK293; 0.3 μM compound; low pH (protons) as agonist; HEK 293 cells expressing hVR1; read-out: Low pH % Inhib. @ 0.3 μM
# Target sequence in this assay (Q8NER1 whole entry): as above
# [6] = tested on: VR1 receptor; assay: Calcium imaging assay in DRG neurons (capsaicin); format: cell-based; details: 3 nM, FIG. 1
# Method: Therefore the functional activity of compounds at the VR1 receptor may be determined by measuring changes in intracellular calcium levels in neurons such as the dorsal root ganglion. […] Prior to assay, cells were loaded with 5 μg/ml Fura2 in normal saline solution at 37° C. for 40 minutes. Cells were then washed with normal saline to remove dye before commencement of the experiment. The plated neurons were transferred into a chamber on the stage of a Nikon eclipse TE300 microscope after which neurons were allowed to attain a stable fluorescence for about 10 minutes before beginning the experiment. The assay consists of two stages, a pretreatment phase followed by a treatment phase. First, a solution of the test compound was added from a multivalve perfusion system to the cells for 1 minute (pretreatment). […] Fura2 was excited at […] to indicate relative calcium ion concentration. Changes in wavelength measurements were made throughout the course of the experiment. The fluorescence ratio was calculated by dividing fluorescence measured at 340 nm by that at 380 nM. Data were collected using Intelligent Imaging's Slidebook software.
# [7] = tested on: Dorsal root ganglion (DRG) neurons; assay: Whole-cell patch clamp electrophysiology; format: cell-based; details: Rattus norvegicus, DRG neuron, read-out: % inhibition of capsaicin induced current
# Method: Dorsal root ganglion (DRG) neurons were recovered from either neonatal or adult rats and plated onto poly-D-lysine coated glass coverslips. The plated neurons were transferred into a chamber to allow drug solutions to be added to the cells using a computer-controlled solenoid-valve based perfusion system. The cells were imaged using standard DIC optics. Cells were patched using finely-pulled glass electrodes. Voltage-clamp electrophysiology experiments were carried out using an Axon Instruments Multiclamp amplified controlled by pCLAMP8 software.
SMILES,bioavailability [1],clearance [1],inhibition of the Capsaicin induced intracellular calcium response [2],IC50 [3],half-life at 1 μM [4],inhibition at 0.3 µM [5],also measured
Cc1cc(C#CC(C)(C)C)ccc1C(=O)Nc1ccc2c(c1)OCC(CO)N2 (stereo not drawn) [Compound 167],–,–,significant inhibition,–,–,–,–
C/C(=C\C(F)(F)F)c1ccc(C(=O)Nc2ccc3c(c2)OCCN3)cc1 [Compound 96],–,–,significant inhibition,–,–,–,–
COc1cc(NC(=O)c2ccc(/C=C/C(C)C)cc2)cc(C(F)(F)F)c1 [Compound 240],–,–,–,–,–,–,inhibition at 0.1 µM [7]: 50%
O=C(Nc1cccc2cnccc12)c1ccc(C#CC(F)(F)F)cc1 [Compound 45],–,–,significant inhibition,–,–,–,–
"Cc1cc(/C=C/C(F)(F)F)ccc1C(=O)Nc1cnc2ccccc2c1 [Compound 187, 2-Methyl-N-quinolin-3-yl-4-((E)-3,3,3-trifluoro-propenyl)-benzamide]",43%,1.83 mL/min/kg,significant inhibition,–,–,–,–

# The next lines start with results.
bioavailability [1],clearance [1],inhibition of the Capsaicin induced intracellular calcium response [2],IC50 [3],half-life at 1 μM [4],inhibition at 0.3 µM [5],SMILES,also measured
54%,33.3 mL/min/kg,significant inhibition,–,–,–,Cc1cc(/C=C/C(F)(F)F)ccc1C(=O)Nc1cnc2c(c1)OCC(CO)N2 (stereo not drawn) [Compound 233],–
45%,0.833 mL/min/kg,–,8 nM,289 min,130%,"Cc1cc(/C=C/C(F)(F)F)ccc1C(=O)Nc1cnc2scnc2c1 [Compound 415, (E)-2-methyl-N-(thiazolo[5,4-b]pyridin-6-yl)-4-(3,3,3-trifluoroprop-1-enyl)benzamide]",–
47%,16.5 mL/min/kg,–,11 nM,37.2 min,100%,"Cc1cc(/C=C/C(F)(F)F)ccc1C(=O)Nc1cnc2cc(CO)cnc2c1 [Compound 317, (E)-N-(7-(Hydroxymethyl)-1,5-naphthyridin-3-yl)-2-methyl-4-(3,33-trifluoroprop-1-enyl)benzamide]",–
–,1.52 mL/min/kg,–,–,–,–,Cc1cc(/C=C/C(F)(F)F)ccc1C(=O)Nc1ccc2sc(CO)nc2c1 [Compound 225],inhibition of the Capsaicin induced intracellular calcium response [6]: reduced; also recorded: significant inhibition
> 100%,20.6 mL/min/kg,–,4 nM,51 min,98%,"Cc1cc(/C=C/C(F)(F)F)ccc1C(=O)Nc1ccc2cc(C(C)O)cnc2c1 (stereo not drawn) [Compound 304, (E)-N-(3-(1-hydroxyethyl)quinolin-7-yl)-2-methyl-4-(3,3,3-trifluoroprop-1-enyl)benzamide]",–
